# Experimental data as given in the SangsterLogP compilation.
row,SMILES,logP
1,Brc1ccc(-c2cc3ccccn3c2)cc1,5.43
2,c1ccn2cccc2c1,2.49
3,Clc1cccc(-c2cc3ccccn3c2)c1,5.14
4,Clc1ccc(-c2cc3ccccn3c2)cc1,5.2
5,c1ccc(-c2cc3ccccn3c2)cc1,4.29
6,COc1cccc(-c2cc3ccccn3c2)c1,4.14
7,COc1ccc(-c2cc3ccccn3c2)cc1,4.2

# The next lines start with the values.
row,logP,SMILES
1,4.87,Cc1cccc(-c2ccc3cccn3c2)c1
2,4.96,Cc1ccc(-c2cc3ccccn3c2)cc1
3,5.31,Brc1cccc(-c2cc3ccccn3c2)c1
